Here are results for four compounds from patent US20240293413A1, “COMPOUND AND METHOD FOR TREATING CHEMOTHERAPY-RELATED GASTROINTESTINAL SIDE EFFECTS” (ONQUALITY PHARMACEUTICALS CHINA LTD., priority 2021, published 2024).

For test [1], the system named is diarrhea caused by the continuous administration of a chemotherapeutic agent in Balb/c mice. Briefly: Examples 444-469 (Table 9): oral CDK inhibitor, diarrhea caused by continuous administration of a chemotherapeutic agent. Type of test: in vivo. An excerpt: (§1) Balb/c mice were fed for 1 week, and then divided into groups. The experiment was divided into a control group, a chemotherapeutic agent group, and a CDK inhibitor group, each of which comprised 10 mice, to perform the administration experiment, for which the administration dosage, mode, time and frequency were shown in Table 9. The control group: being intragastrically administered with the same solvent as that used in the CDK inhibitor group (the time was shown in Table 9), and then being injected/intragastrically administered with the same solvent as that used in the chemotherapeutic agent group (the administration mode was shown in Table 9): the chemotherapeutic agent group: being intragastrically administered with the same solvent as that used in the CDK inhibitor group (the time was shown in Table 9), and then being injected/intragastrically administered with the chemotherapeutic agent (the type, administration mode, dosage and duration time were shown in Table 9): the CDK inhibitor group: being intragastrically administered with the CDK inhibitor (the time was shown in Table 9), and then being administered with the chemotherapeutic agent (the type, administration mode, dosage and duration time were shown in Table 9).
The scoring of diarrhea can refer to the method of Akinobu Kurita (Cancer Chemother Pharmacol 2000: 46:211-20.), Grade 0: normal feces: Grade 1: mild diarrhea, the stools is slightly wet and soft: Grade 2: moderate diarrhea, loose stools and mild perianal contamination: Grade 3: severe diarrhea, watery stools and accompanied by severe perianal staining (see FIG. 1). It is regarded as effective remission when the diarrhea grading of mice in the CDK inhibitor group is reduced compared with the average diarrhea grading of mice in the chemotherapeutic agent group.
The diarrhea grading of mice was observed and recorded every day. At the end of the experiment, the number of mice in the CDK inhibitor group whose diarrhea grading was lower than that of mice in the chemotherapeutic agent group was recorded. Table 9 lists various animal experiment combinations of chemotherapeutic agents and CDK inhibitors, as well as the corresponding experimental results. (Relative remission rate %=the number of mice in the CDK inhibitor group whose diarrhea has been effectively relieved/the total number of mice in the CDK inhibitor group*100%. The establishment rate of diarrhea model in the chemotherapeutic agent group was 50%-80%, that is, about 5-8 of 10 mice developed diarrhea during the experiment, and there were cases of individual mice death or not developing diarrhea.)

Test [2] has as its system constipation caused by the continuous administration of a chemotherapeutic agent in Balb/c mice. In words: Examples 470-481 (Table 10): oral CDK inhibitor, constipation caused by continuous administration of a chemotherapeutic agent. Type of test: in vivo. The conditions noted are these: Fluorouracil (5-Fu) intraperitoneal injection 100 mg/kg once a day.
Excerpt: as §1, with “10.” for “9.”, “10),” for “9),”, “10):” for “9):”, “10).” for “9).”
The feces reduction rate was calculated with reference to the method of Ji Eun Kim (Lab Anim Res. 2016 December: 32(4): 231-240.). Feces reduction rate (%)=(the control group−the chemotherapeutic agent group or the CDK inhibitor group)/the control group*100%
It is regarded as effective remission when the feces reduction rate of mice in the CDK inhibitor group is reduced compared with that in the chemotherapeutic agent group.
The feces amount of mice within 3 hours was observed and recorded every day. At the end of the experiment, the number of mice in the CDK inhibitor group whose feces reduction rate was lower than that of mice in the chemotherapeutic agent group was recorded. Table 10 lists various animal experiment combinations of chemotherapeutic agents and CDK inhibitors, as well as the corresponding experimental results.

Setting [3] is: continuous administration of fluorouracil and capecitabine for 7 days or above.
[4] abbreviates: continuous administration of fluorouracil for less than 7 days.

SMILES strings stand for the structures.

Regarding `CN1CCN(c2ccc(Nc3ncc4cc5n(c4n3)C3(CCCCC3)CNC5=O)nc2)CC1` [Trilaciclib (G1T28), Trilaciclib], the Relative remission rate in test [1] (Examples 452-455 (one value given; 2 h, 4 h, 6 h, 8 h before), Fluorouracil (5-Fu) intraperitoneal injection 70 mg/kg once a day, for 7 days, CDK inhibitor oral 125 mg/kg once a day, for 7 days, cycle 10 days) is listed as 10%; in test [1] (Examples 458-461 (one value given; 2 h, 4 h, 6 h, 8 h before), Capecitabine oral administration 1000 mg/kg (printed 100/0 wrapped) once a day, for 5 days, CDK inhibitor oral 100 mg/kg once a day, for 5 days, cycle 14 days), 50%. Moreover, the “relieving effect on diarrhea” value in test [1] (setting [3]) is listed as “not significant”; in test [1] (setting [4]), “significant relieving effects”.
For `CCN1CCN(Cc2ccc(Nc3ncc(F)c(-c4cc(F)c5nc(C)n(C(C)C)c5c4)n3)nc2)CC1` [Abemaciclib], the Relative remission rate in test [1] (Example 457, Fluorouracil (5-Fu) oral administration 50 mg/kg once a day, for 14 days, CDK inhibitor oral 150 mg/kg once a day, for 14 days, 8 h before, cycle 14 days) came out at 0%.
With `CN(C)C(=O)c1cc2cnc(Nc3ccc(N4CCNCC4)cn3)nc2n1C1CCCC1` [Ribociclib], the Relative remission rate in test [1] (Example 456, Fluorouracil (5-Fu) intravenous injection 70 mg/kg once a day, for 3 days, CDK inhibitor oral 200 mg/kg once a day, for 3 days, 4 h before, cycle 8 days) is given as 80%. Further, the “relieving effect on diarrhea” value is listed as “not significant” in test [1] (setting [3]) and “significant relieving effects” in test [1] (setting [4]).
For the compound `CC(=O)c1c(C)c2cnc(Nc3ccc(N4CCNCC4)cn3)nc2n(C2CCCC2)c1=O` [Palbociclib], the Remission rate in test [2] (Examples 470-473 (one value given; 2 h, 4 h, 6 h, 8 h before), for 3 days, CDK inhibitor oral 150 mg/kg once a day, for 3 days, cycle 10 days) was 40%; in test [2] (Examples 474-477 (one value given; 2 h, 4 h, 6 h, 8 h before), for 5 days, CDK inhibitor oral 125 mg/kg once a day, for 5 days, cycle 9 days) it was 50%; in test [2] (Examples 478-481 (one value given; 2 h, 4 h, 6 h, 8 h before), for 7 days, CDK inhibitor oral 125 mg/kg once a day, for 7 days, cycle 10 days), 10%. For the same compound, the Relative remission rate in test [1] (Examples 444-447 (one value printed; 4 h, 6 h, 8 h, 12 h before), Fluorouracil (5-Fu) intraperitoneal injection 70 mg/kg once a day, for 3 days, CDK inhibitor oral 150 mg/kg once a day, for 3 days, cycle 10 days) stood at 70%; in test [1] (Examples 448-451 (one value printed; 4 h, 6 h, 8 h, 12 h before), Fluorouracil (5-Fu) intraperitoneal injection 70 mg/kg once a day, for 5 days, CDK inhibitor oral 150 mg/kg once a day, for 5 days, cycle 9 days), 60%; in test [1] (Examples 462-465 (one value given; 2 h, 4 h, 6 h, 8 h before), Capecitabine oral administration 1000 mg/kg (printed 100/0 wrapped) once a day, for 7 days, CDK inhibitor oral 150 mg/kg once a day, for 7 days, cycle 14 days) it was 0%; in test [1] (Examples 466-469 (one value given; 2 h, 4 h, 6 h, 8 h before), Capecitabine oral administration 1000 mg/kg (printed 100/0 wrapped) once a day, for 14 days, CDK inhibitor oral 150 mg/kg once a day, for 14 days, cycle 14 days), 10%.
